For assay [1], the target named is T1, GHSR1a (Homo sapiens, UniProt Q92847).
T1 construct: expressed in transfected cells; host or cells: HEK293
Kind of assay: Calcium FLIPR assay, GHSR-1a antagonism (reduction of ghrelin response). In kind it is cell-based. The following applies: HEK293/GHSR1a cells, ghrelin 10 nM. As to the method: (§1) The intracellular calcium assay was carried out in a 384-well format FLIPR™ (Molecular Device) HEK293/GHSR1a cell line. Cells were seeded 24 hr prior to the experiments at an optimal density per well. Preincubation with selected calcium dye lasted for 30-60 min at room temperature or 37° C. Test compounds, dissolved in DMSO, were added at the appropriate time and incubated for 15 min followed by the addition of ghrelin with FlexStation or FLIPR. Relative fluorescence was monitored by the FLIPR™ Molecular Device. EC50 and IC50 values were estimated from dose-response data using GraphPad Prism software. To check for GHSR-1a agonism the compound was added at t=20 sec. and the calcium response was followed for 2 minutes. To check for GHSR-1a antagonism the compound and Ghrelin (10 nM) were added to the cells at t=20 sec. and the calcium response was measured for 2 minutes. The potency of the antagonist was calculated by its ability to reduce the ghrelin response. Dose-response curves were made for relevant antagonists.

For assay [2], the target named is T1, GHSR1a. The assay is described as follows: Calcium FLIPR assay, GHSR-1a agonism. In kind it is cell-based. Set-up: Emax: unit not given here. The following applies: HEK293/GHSR1a cells. Here is the method: as §1

T1 sequence (Q92847 whole entry): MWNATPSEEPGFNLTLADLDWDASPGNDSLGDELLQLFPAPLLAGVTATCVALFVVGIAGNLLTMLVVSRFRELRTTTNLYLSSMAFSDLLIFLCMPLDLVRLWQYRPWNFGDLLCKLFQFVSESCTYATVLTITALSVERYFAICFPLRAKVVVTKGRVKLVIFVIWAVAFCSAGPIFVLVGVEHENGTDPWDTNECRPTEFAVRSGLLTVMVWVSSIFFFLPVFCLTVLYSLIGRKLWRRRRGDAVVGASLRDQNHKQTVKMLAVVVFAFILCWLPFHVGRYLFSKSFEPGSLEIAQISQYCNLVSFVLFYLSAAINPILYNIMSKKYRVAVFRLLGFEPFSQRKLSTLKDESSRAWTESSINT

One may read the IC50 as the concentration at which inhibition is half-maximal. By EC50 is commonly meant the midpoint of the concentration-response curve. Regarding `COCCn1cc(-c2ccc(C(C)NC(=O)N(C)C3CCN(C)CC3)c(Cl)c2Cl)cn1` (stereo not shown) [Compound H0694, 3-(1-(2,3-dichloro-4-(1-(2-methoxyethyl)-1H-pyrazol-4-yl)phenyl)ethyl)-1-methyl-1-(1-methylpiperidin-4-yl)urea], the IC50 on GHSR1a [1] was 309 nM. The EC50 at GHSR1a [2] is over 30000 nM.

In the case of `CC(NC(=O)N(C)C1CCN(C)CC1)c1ccc(C#CCO)c(Cl)c1Cl` (stereo not shown) [Compound H0755, 3-(1-(2,3-dichloro-4-(3-hydroxyprop-1-yn-1-yl)phenyl)ethyl)-1-methyl-1-(1-methylpiperidin-4-yl)urea], the IC50 on GHSR1a [1] stood at 12 nM. On GHSR1a [2], the half-maximal effective concentration (EC50) was determined as 10 nM and the Emax is 2196.

Regarding `CON(C(=O)NC(CC1CC1)c1ccc(-c2cnccn2)c(Cl)c1Cl)C1CCN(C)CC1` (stereo not shown) [Compound H0741, 3-(2-cyclopropyl-1-(2,3-dichloro-4-(pyrazin-2-yl)phenyl)ethyl)-1-methoxy-1-(1-methylpiperidin-4-yl)urea], the IC50 at GHSR1a [1] worked out at 15 nM. On GHSR1a [2], the EC50 is over 30000 nM.

As for `COC(=O)C(NC(=O)N(C)C1CCN(C)CC1)c1ccc(-c2cncnc2)c(Cl)c1Cl` (stereo not shown) [Compound H0662, methyl 2-(2,3-dichloro-4-(pyrimidin-5-yl)phenyl)-2-(3-methyl-3-(1-methylpiperidin-4-yl)ureido)acetate], at GHSR1a [1], the IC50 was at least 1000 nM. Moreover, the EC50 at GHSR1a [2] is over 30000 nM.

Turning to `CC(NC(=O)N(C)C1CCN(C)CC1)c1ccc(-c2cncc(C3CCCC3)c2)c(Cl)c1Cl` (stereo not shown) [Compound H0718, 3-(1-(2,3-dichloro-4-(5-cyclopentylpyridin-3-yl)phenyl)ethyl)-1-methyl-1-(1-methylpiperidin-4-yl)urea], at GHSR1a [1], the IC50 was 499 nM. The EC50 on GHSR1a [2] was over 30000 nM.

`CC(C)C#Cc1ccc(C(C)NC(=O)N(C)C2CCN(C)CC2)c(Cl)c1Cl` (stereo not shown) [Compound H0852, 3-(1-(2,3-dichloro-4-(3-methylbut-1-yn-1-yl)phenyl)ethyl)-1-methyl-1-(1-methylpiperidin-4-yl)urea]: the IC50 at GHSR1a [1] turned out to be 22 nM. In addition, on GHSR1a [2], the concentration for a half-maximal effect (EC50) worked out at 18 nM and the Emax is listed as 1683.

As for `CC(NC(=O)N(C)C1CCN(C)CC1)c1ccc(-c2ccc(C#N)nc2)c(Cl)c1Cl` (stereo not shown) [Compound H0616, 3-(1-(2,3-dichloro-4-(6-cyanopyridin-3-yl)phenyl)ethyl)-1-methyl-1-(1-methylpiperidin-4-yl)urea], at GHSR1a [1], the IC50 is 132 nM. Further, the EC50 on GHSR1a [2] was determined as 580 nM.

Take `Cc1nccnc1-c1ccc(C(C)NC(=O)N(C)[C@@H]2CCN(C)CC2(C)C)c(Cl)c1Cl` (stereo partly drawn) [Compound H0843, 3-(1-(2,3-dichloro-4-(3-methylpyrazin-2-yl)phenyl)ethyl)-1-methyl-1-((R)-1,3,3-trimethylpiperidin-4-yl)urea]: the IC50 at GHSR1a [1] stood at 35 nM. Moreover, at GHSR1a [2], the EC50 was found to be 51 nM and the Emax is listed as 1910.

Regarding `CCc1ccc(C(C)NC(=O)N(C)C2CCN(C)CC2)c(Cl)c1Cl` (stereo not shown) [Compound H0628, 3-(1-(2,3-dichloro-4-ethylphenyl)ethyl)-1-methyl-1-(1-methylpiperidin-4-yl)urea], the IC50 at GHSR1a [1] came out at 59 nM. For the same compound, at GHSR1a [2], the EC50 came to 101 nM and the Emax is 4433.

On to `CC(NC(=O)N(C)C1CCN(C)CC1)c1ccc(-c2cnc(NC3CC3)nc2)c(Cl)c1Cl` (stereo not shown) [Compound H0805, 3-(1-(2,3-dichloro-4-(2-(cyclopropylamino)pyrimidin-5-yl)phenyl)ethyl)-1-methyl-1-(1-methylpiperidin-4-yl)urea], for which, on GHSR1a [1], the IC50 turned out to be 4 nM. In addition, at GHSR1a [2], the concentration giving a half-maximal response (EC50) amounted to 9 nM and the Emax is reported as 5433.

On to `CC(NC(=O)N(C)C1CCN(C)CC1)c1ccc(-c2cnc(NC(=O)C3CC3)nc2)c(Cl)c1Cl` (stereo not shown) [Compound H0807, N-(5-(2,3-dichloro-4-(1-(3-methyl-3-(1-methylpiperidin-4-yl)ureido)ethyl)phenyl)pyrimidin-2-yl)cyclopropanecarboxamide], for which, at GHSR1a [1], the IC50 was found to be 14 nM. Further, on GHSR1a [2], the concentration for a half-maximal effect (EC50) was determined as 24 nM and the Emax is listed as 3669.

Regarding `CC(NC(=O)N(C)C1CCN(C)CC1)c1ccc(-c2cnc(C(N)=O)cn2)c(Cl)c1Cl` (stereo not shown) [Compound H0760], the IC50 on GHSR1a [1] was found to be 6200 nM. Besides, the EC50 at GHSR1a [2] is over 30000 nM.

With `C#Cc1ccc(C(C)NC(=O)N(OCC)C2CCN(C)CC2)c(Cl)c1Cl` (stereo not shown) [Compound H0749, 3-(1-(2,3-dichloro-4-ethynylphenyl)ethyl)-1-ethoxy-1-(1-methylpiperidin-4-yl)urea], the IC50 at GHSR1a [1] was determined as 111 nM. At GHSR1a [2], the EC50 was 397 nM and the Emax amounted to 1554.

On to `CC#Cc1ccc(C(C)NC(=O)N(C)C2CCN(C)CC2)c(Cl)c1Cl` (stereo not shown) [Compound H0832, 3-(1-(2,3-dichloro-4-(prop-1-yn-1-yl)phenyl)ethyl)-1-methyl-1-(1-methylpiperidin-4-yl)urea], for which the IC50 at GHSR1a [1] came to 11 nM. The concentration giving a half-maximal response (EC50) at GHSR1a [2] was over 30000 nM.

As to `CC(NC(=O)N(C)C1CCN(C)CC1)c1ccc(-c2cncc(-c3ccsc3)c2)c(Cl)c1Cl` (stereo not shown) [Compound H0747, 3-(1-(2,3-dichloro-4-(5-(thiophen-3-yl)pyridin-3-yl)phenyl)ethyl)-1-methyl-1-(1-methylpiperidin-4-yl)urea], at GHSR1a [1], the IC50 came out at 84 nM. At GHSR1a [2], the half-maximal effective concentration (EC50) was over 30000 nM.

In the case of `CC(NC(=O)N(C)C1CCN(C)CC1)c1ccc(-c2cncnc2)c2ccccc12` (stereo not shown) [Compound H0579, 1-methyl-1-(1-methylpiperidin-4-yl)-3-(1-(4-(pyrimidin-5-yl)naphthalen-1-yl)ethyl)urea], the EC50 at GHSR1a [2] is over 30000 nM.

For the compound `CC(NC(=O)N(C)C1CCN(C)CC1)c1ccc(-c2ccc3[nH]ccc3c2)c(Cl)c1Cl` (stereo not shown) [Compound H0515, 3-(1-(2,3-dichloro-4-(1H-indol-5-yl)phenyl)ethyl)-1-methyl-1-(1-methylpiperidin-4-yl)urea], the IC50 on GHSR1a [1] stood at 40 nM. The EC50 on GHSR1a [2] came to 885 nM.

In the case of `CC(NC(=O)N(C)C1CCN(C)CC1)c1ccc(-c2ccc(C#N)cc2)c(Cl)c1Cl` (stereo not shown) [Compound H0809, 3-(1-(2,3-dichloro-4′-cyano-[1,1′-biphenyl]-4-yl)ethyl)-1-methyl-1-(1-methylpiperidin-4-yl)urea], at GHSR1a [1], the IC50 was determined as 149 nM. For the same compound, at GHSR1a [2], the EC50 stood at 217 nM and the Emax is given as 2339.

For `CC(NC(=O)N(C)C1CCN(C)CC1)c1ccc(-c2cnc(N3CCN(C)CC3)cn2)c(Cl)c1Cl` (stereo not shown) [Compound H0822, 3-(1-(2,3-dichloro-4-(5-(4-methylpiperazin-1-yl)pyrazin-2-yl)phenyl)ethyl)-1-methyl-1-(1-methylpiperidin-4-yl)urea], the IC50 at GHSR1a [1] is 1200 nM. For the same compound, at GHSR1a [2], the EC50 was over 30000 nM.

As to `CC(NC(=O)N(C)C1CCN(C)CC1)c1ccc(C#Cc2ccccc2)c(Cl)c1Cl` (stereo not shown) [Compound H0609, 3-(1-(2,3-dichloro-4-(phenylethynyl)phenyl)ethyl)-1-methyl-1-(1-methylpiperidin-4-yl)urea], the IC50 on GHSR1a [1] was 517 nM. In addition, the EC50 on GHSR1a [2] was over 30000 nM.

With `CC(NC(=O)N(C)C1CCN(C)CC1)c1ccc(C(=O)Nc2cccs2)c(Cl)c1Cl` (stereo not shown) [Compound H0773, 2,3-dichloro-4-(1-(3-methyl-3-(1-methylpiperidin-4-yl)ureido)ethyl)-N-(thiophen-2-yl)benzamide], the IC50 at GHSR1a [1] came to 608 nM. Moreover, the EC50 on GHSR1a [2] is over 30000 nM.

On to `C#Cc1cncc(-c2ccc(C(C)NC(=O)N(C)C3CCN(C)CC3)c(Cl)c2Cl)c1` (stereo not shown) [Compound H0710, 3-(1-(2,3-dichloro-4-(5-ethynylpyridin-3-yl)phenyl)ethyl)-1-methyl-1-(1-methylpiperidin-4-yl)urea], for which, at GHSR1a [1], the IC50 stood at 275 nM. For the same compound, at GHSR1a [2], the EC50 came to 395 nM and the Emax is given as 1621.

Consider `CC(NC(=O)N(C)C1CCN(C)CC1)c1ccc(-c2ccncc2)c2ccccc12` (stereo not shown) [Compound H0578, 1-methyl-1-(1-methylpiperidin-4-yl)-3-(1-(4-(pyridin-4-yl)naphthalen-1-yl)ethyl)urea], for which the IC50 on GHSR1a [1] amounted to 490 nM. For the same compound, the EC50 at GHSR1a [2] was over 30000 nM.

Regarding `CC(C)Oc1ccc(-c2ccc(C(C)NC(=O)N(C)C3CCN(C)CC3)c(Cl)c2Cl)cn1` (stereo not shown) [Compound H0608, 3-(1-(2,3-dichloro-4-(6-isopropoxypyridin-3-yl)phenyl)ethyl)-1-methyl-1-(1-methylpiperidin-4-yl)urea], the IC50 on GHSR1a [1] turned out to be 69 nM. Moreover, the EC50 on GHSR1a [2] stood at 422 nM.

On to `CC(NC(=O)N(C)C1CCN(C)CC1)c1ccc(-c2sccc2CO)c(Cl)c1Cl` (stereo not shown) [Compound H0664, 3-(1-(2,3-dichloro-4-(3-(hydroxymethyl)thiophen-2-yl)phenyl)ethyl)-1-methyl-1-(1-methylpiperidin-4-yl)urea], for which, on GHSR1a [1], the half-inhibitory concentration (IC50) amounted to 261 nM. Moreover, the concentration giving a half-maximal response (EC50) on GHSR1a [2] is over 30000 nM.

As to `CC(NC(=O)N(C)C1CCN(C)CC1)c1ccc(C#CCN2CCN(C)CC2)c(Cl)c1Cl` (stereo not shown) [Compound H0812, 3-(1-(2,3-dichloro-4-(3-(4-methylpiperazin-1-yl)prop-1-yn-1-yl)phenyl)ethyl)-1-methyl-1-(1-methylpiperidin-4-yl)urea], on GHSR1a [1], the IC50 amounted to 1200 nM. At GHSR1a [2], the 50% effective concentration (EC50) was found to be 1500 nM and the Emax is 871.

Regarding `COc1ccc(C(C#N)NC(=O)N(C)C2CCN(C)CC2)c(Cl)c1Cl` (stereo not shown) [Compound H0669, 3-(cyano(2,3-dichloro-4-methoxyphenyl)methyl)-1-methyl-1-(1-methylpiperidin-4-yl)urea], at GHSR1a [2], the EC50 was 5 nM and the Emax stood at 4961.

On to `COC(=O)c1ccc(C#Cc2ccc(C(C)NC(=O)N(C)C3CCN(C)CC3)c(Cl)c2Cl)s1` (stereo not shown) [Compound H0779], for which the IC50 at GHSR1a [1] turned out to be 429 nM.

The record behind these values is patent US9546157B2, “Asymmetric piperidinyl-substituted ureas as medicines” (Helsinn Healthcare SA, priority 2014, dated 2017).
